From patent publication US12202835B2, “Substituted aromatic ring-linked dioxinoquinazolines and dioxinoquinolines as kinase inhibitors” (BEIJING SCITECH-MQ PHARMACEUTICALS LIMITED, priority 2018, dated 2025)
Where two headings read alike, the source gives them in different places.

Tests used:
Ba/F3 LMNA-NTRK1 cells = experiment: Assay for inhibiting the proliferation of Ba/F3 LMNA-NTRK1 cells (CCK-8); format: cell-based
Outline: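 Viability was read as absorbance at 450 nm following 1–2 h CCK-8 incubation at 37 °C, relative to control and blank wells.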

c-MET kinase = c-MET kinase (Homo sapiens (Human), UniProt P08581); experiment: Assay of small molecular compounds for inhibiting the activity of c-MET kinase (LANCE TR-FRET); format: biochemical; conditions: read-out: CMET IC50
Sequence of c-MET kinase (P08581 25-1390): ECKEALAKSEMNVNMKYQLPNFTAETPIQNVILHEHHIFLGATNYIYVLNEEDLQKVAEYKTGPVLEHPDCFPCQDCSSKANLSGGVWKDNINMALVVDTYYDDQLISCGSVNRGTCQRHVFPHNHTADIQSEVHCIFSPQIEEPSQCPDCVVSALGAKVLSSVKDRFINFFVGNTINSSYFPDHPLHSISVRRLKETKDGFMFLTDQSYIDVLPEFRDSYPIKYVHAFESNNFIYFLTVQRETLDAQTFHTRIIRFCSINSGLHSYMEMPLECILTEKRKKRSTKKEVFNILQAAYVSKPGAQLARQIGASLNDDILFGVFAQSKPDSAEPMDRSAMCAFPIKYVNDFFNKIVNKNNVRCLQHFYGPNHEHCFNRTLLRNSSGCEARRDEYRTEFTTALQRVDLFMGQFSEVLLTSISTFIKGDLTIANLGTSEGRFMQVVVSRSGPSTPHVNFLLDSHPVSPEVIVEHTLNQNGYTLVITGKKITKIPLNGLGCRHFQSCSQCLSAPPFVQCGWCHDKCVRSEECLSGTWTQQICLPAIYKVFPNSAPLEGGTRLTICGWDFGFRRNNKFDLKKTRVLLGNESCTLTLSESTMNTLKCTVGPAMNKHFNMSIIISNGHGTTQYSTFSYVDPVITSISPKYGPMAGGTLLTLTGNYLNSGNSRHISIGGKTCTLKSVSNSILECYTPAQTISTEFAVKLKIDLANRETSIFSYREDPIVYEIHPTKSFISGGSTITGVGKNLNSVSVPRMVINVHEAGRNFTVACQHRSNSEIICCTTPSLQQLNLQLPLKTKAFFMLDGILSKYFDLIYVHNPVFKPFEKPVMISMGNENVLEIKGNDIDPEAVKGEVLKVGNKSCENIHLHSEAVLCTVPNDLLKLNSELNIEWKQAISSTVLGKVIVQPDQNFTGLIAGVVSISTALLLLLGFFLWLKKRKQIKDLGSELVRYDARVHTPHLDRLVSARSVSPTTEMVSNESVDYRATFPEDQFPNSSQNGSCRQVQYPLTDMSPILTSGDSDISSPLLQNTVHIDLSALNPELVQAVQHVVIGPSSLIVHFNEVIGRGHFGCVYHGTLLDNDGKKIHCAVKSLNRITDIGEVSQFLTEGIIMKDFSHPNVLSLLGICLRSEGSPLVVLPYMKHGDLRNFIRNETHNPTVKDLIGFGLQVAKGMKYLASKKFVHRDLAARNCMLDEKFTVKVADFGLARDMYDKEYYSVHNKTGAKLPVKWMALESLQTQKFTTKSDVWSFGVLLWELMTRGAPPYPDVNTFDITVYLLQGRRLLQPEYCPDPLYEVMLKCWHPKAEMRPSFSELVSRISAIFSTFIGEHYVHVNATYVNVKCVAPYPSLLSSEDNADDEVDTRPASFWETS
Outline: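 Eleven final concentrations from 2500 nM down to 0.042 nM, in 4% DMSO, were tested against human c-MET (2× stock 2 nM), with compound and enzyme premixed for 5 min. The phosphorylation reaction used 4× stock of 400 nM ULight-JAK-1 peptide and 40 μM ATP for 60 min at room temperature, then stop and detection steps. TR-FRET percent inhibition against positive and negative controls gave the IC50.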

TRKA kinase = TRKA kinase (Homo sapiens (Human), UniProt P04629); experiment: Assay of small molecular compounds for inhibiting the activity of TRKA kinase (LANCE TR-FRET); format: biochemical
Sequence of TRKA kinase (P04629 33-796): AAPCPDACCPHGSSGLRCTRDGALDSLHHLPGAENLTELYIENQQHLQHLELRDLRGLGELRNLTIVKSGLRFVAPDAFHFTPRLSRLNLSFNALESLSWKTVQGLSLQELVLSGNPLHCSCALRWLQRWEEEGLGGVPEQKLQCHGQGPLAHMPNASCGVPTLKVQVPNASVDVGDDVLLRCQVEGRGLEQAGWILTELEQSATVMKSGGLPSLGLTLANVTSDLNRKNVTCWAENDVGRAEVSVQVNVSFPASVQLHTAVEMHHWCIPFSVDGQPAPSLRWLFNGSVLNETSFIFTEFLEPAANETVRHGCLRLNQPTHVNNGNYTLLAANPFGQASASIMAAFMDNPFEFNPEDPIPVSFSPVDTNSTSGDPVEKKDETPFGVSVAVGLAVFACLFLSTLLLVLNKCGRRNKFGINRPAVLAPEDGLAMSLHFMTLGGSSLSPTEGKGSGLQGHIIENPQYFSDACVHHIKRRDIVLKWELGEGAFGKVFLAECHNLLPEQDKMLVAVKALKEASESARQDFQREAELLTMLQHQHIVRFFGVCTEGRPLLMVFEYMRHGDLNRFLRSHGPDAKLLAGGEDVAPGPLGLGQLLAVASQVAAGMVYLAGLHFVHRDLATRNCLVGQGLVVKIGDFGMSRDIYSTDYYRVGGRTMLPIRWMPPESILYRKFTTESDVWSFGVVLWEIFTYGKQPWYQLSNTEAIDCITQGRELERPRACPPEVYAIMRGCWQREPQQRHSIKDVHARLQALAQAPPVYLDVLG
Outline: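 TRKA (supplied as 2 nM 2× solution) was pre-reacted with compounds for 5 min at room temperature before a 4× ULight-TK peptide/ATP mix (400 nM/40 μM) started the 60-min dark reaction at 1% DMSO. After stop and 60-min detection, TR-FRET was read.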

SMILES | IC50 (Ba/F3 LMNA-NTRK1 cells; Mus musculus, BaF3) [µM] | IC50 (c-MET kinase) [µM] | IC50 (TRKA kinase) [µM] | IC50 (Ba/F3 LMNA-NTRK1 cells) [µM]
CCOc1ccn(-c2ccc(F)cc2)c(=O)c1C(=O)Nc1ccc(Oc2ncnc3cc(OCCCN4CCOCC4)c4c(c23)OCCO4)c(F)c1 [Example 6, N-(3-fluoro-4-((5-(3-morpholinopropoxy)-2,3-dihydro-[1,4]dioxino[2,3-f]quinazolin-10-yl)oxy)phenyl)-1-(4-fluorophenyl)-4-ethoxy-2-oxo-1,2-dihydropyridine-3-carboxamide] | < 0.05 | ≤ 0.05 | < 0.05 | –
COc1cc2nccc(Oc3ccc(NC(=O)c4cn(C)c(=O)n(-c5ccc(F)cc5)c4=O)cc3F)c2c2c1OCCO2 [Example 13, N-(3-fluoro-4-((5-methoxy-2,3-dihydro-[1,4]dioxino[2,3-f]quinolin-10-yl)oxy)phenyl)-3-(4-fluorophenyl)-1-methyl-2,4-dioxo-1,2,3,4-tetrahydropyrimidine-5-carboxamide] | < 0.05 | ≤ 0.05 | < 0.05 | –
Cn1cc(C(=O)Nc2ccc(Oc3ccnc4cc(OCCCN5CCOCC5)c5c(c34)OCCO5)c(F)c2)c(=O)n(-c2ccc(F)cc2)c1=O [Example 15, N-(3-fluoro-4-((5-(3-morpholinopropoxy)-2,3-dihydro-[1,4]dioxino[2,3-f]quinolin-10-yl)oxy)phenyl)-3-(4-fluorophenyl)-1-methyl-2,4-dioxo-1,2,3,4-tetrahydropyrimidine-5-carboxamide] | < 0.05 | ≤ 0.05 | < 0.05 | –
CC(C)n1cc(C(=O)Nc2ccc(Oc3ccnc4cc(OCCCN5CCOCC5)c5c(c34)OCCO5)c(F)c2)c(=O)n(-c2ccc(F)cc2)c1=O [Example 16, N-(3-fluoro-4-((5-(3-morpholinopropoxy)-2,3-dihydro-[1,4]dioxino[2,3-f]quinolin-10-yl)oxy)phenyl)-3-(4-fluorophenyl)-1-isopropyl-2,4-dioxo-1,2,3,4-tetrahydropyrimidine-5-carboxamide] | < 0.05 | ≤ 0.05 | < 0.05 | –
COc1ccn(-c2ccc(F)cc2)c(=O)c1C(=O)Nc1ccc(Oc2ccnc3cc(OCCCN4CCOCC4)c4c(c23)OCCO4)c(F)c1 [Example 21, N-(3-fluoro-4-((5-(3-morpholinopropoxy)-2,3-dihydro-[1,4]dioxino[2,3-f]quinolin-10-yl)oxy)phenyl)-1-(4-fluorophenyl)-4-methoxy-2-oxo-1,2-dihydropyridine-3-carboxamide] | < 0.05 | ≤ 0.05 | < 0.05 | –
CCOc1ccn(-c2ccc(F)cc2)c(=O)c1C(=O)Nc1ccc(Oc2ccnc3cc(OCCCN4CCOCC4)c4c(c23)OCCO4)c(F)c1 [Example 22, N-(3-fluoro-4-((5-(3-morpholinopropoxy)-2,3-dihydro-[1,4]dioxino[2,3-f]quinolin-10-yl)oxy)phenyl)-1-(4-fluorophenyl)-4-ethoxy-2-oxo-1,2-dihydropyridine-3-carboxamide] | < 0.05 | ≤ 0.05 | < 0.05 | –
COc1cn(-c2ccc(F)cc2C)nc1C(=O)Nc1ccc(Oc2ccnc3cc(OCCCN4CCOCC4)c4c(c23)OCCO4)c(F)c1 [Example 27, 1-(4-fluoro-2-methylphenyl)-N-(3-fluoro-4-((5-(3-morpholinopropoxy)-2,3-dihydro-[1,4]dioxino[2,3-f]quinolin-10-yl)oxy)phenyl)-4-methoxy-1H-pyrazole-3-carboxamide] | < 0.05 | ≤ 0.05 | < 0.05 | –
COc1cc2ncnc(Oc3ccc(NC(=O)c4cn(C)c(=O)n(-c5ccc(F)cc5)c4=O)cc3F)c2c2c1OCCO2 [Example 29, N-(3-fluoro-4-((5-methoxy-2,3-dihydro-[1,4]dioxino[2,3-f]quinazolin-10-yl)oxy)phenyl)-3-(4-fluorophenyl)-1-methyl-2,4-dioxo-1,2,3,4-tetrahydropyrimidine-5-carboxamide] | < 0.05 | ≤ 0.05 | < 0.05 | –
Cn1cc(C(=O)Nc2ccc(Oc3ncnc4cc(OCCCN5CCOCC5)c5c(c34)OCCO5)c(F)c2)c(=O)n(-c2ccc(F)cc2)c1=O [Example 30, N-(3-fluoro-4-((5-(3-morpholinopropoxy)-2,3-dihydro-[1,4]dioxino[2,3-f]quinazolin-10-yl)oxy)phenyl)-3-(4-fluorophenyl)-1-methyl-2,4-dioxo-1,2,3,4-tetrahydropyrimidine-5-carboxamide] | < 0.05 | ≤ 0.05 | < 0.05 | –
CCOc1ccn(-c2ccc(F)cc2)c(=O)c1C(=O)Nc1ccc(Oc2ccnc3cc(OCCCN4CCCCC4)c4c(c23)OCCO4)c(F)c1 [Example 33, N-(3-fluoro-4-((5-(3-(piperidin-1-yl)propoxy)-2,3-dihydro-[1,4]dioxino[2,3-f]quinolin-10-yl)oxy)phenyl)-1-(4-fluorophenyl)-4-ethoxy-2-oxo-1,2-dihydropyridine-3-carboxamide] | < 0.05 | ≤ 0.05 | < 0.05 | –
O=C(Nc1ccc(Oc2ccnc3ccc4c(c23)OCCO4)cc1F)c1cccn(-c2ccc(F)cc2)c1=O [Example 170, N-(4-((2,3-dihydro-[1,4]dioxino[2,3-f]quinolin-10-yl)oxy)-2-fluorophenyl)-1-(4-fluorophenyl)-2-oxo-1,2-dihydropyridine-3-carboxamide] | – | 0.05 to 0.5 | < 0.05 | –
CCOc1ccn(-c2ccc(F)cc2)c(=O)c1C(=O)Nc1ccc(Oc2ccnc3ccc4c(c23)OCCO4)cc1F [Example 171, N-(4-((2,3-dihydro-[1,4]dioxino[2,3-f]quinolin-10-yl)oxy)-2-fluorophenyl)-1-(4-fluorophenyl)-4-ethoxy-2-oxo-1,2-dihydropyridine-3-carboxamide] | – | ≤ 0.05 | < 0.05 | –
COc1ccn(-c2ccc(F)cc2)c(=O)c1C(=O)Nc1ccc(Oc2ccnc3ccc4c(c23)OCCO4)cc1F [Example 172, N-(4-((2,3-dihydro-[1,4]dioxino[2,3-f]quinolin-10-yl)oxy)-2-fluorophenyl)-1-(4-fluorophenyl)-4-methoxy-2-oxo-1,2-dihydropyridine-3-carboxamide] | – | 0.05 to 0.5 | < 0.05 | –

Continued, values first:

IC50 (Ba/F3 LMNA-NTRK1 cells; Mus musculus, BaF3) [µM] | IC50 (c-MET kinase) [µM] | IC50 (TRKA kinase) [µM] | IC50 (Ba/F3 LMNA-NTRK1 cells) [µM] | SMILES
< 0.05 | ≤ 0.05 | < 0.05 | – | COc1cc2nccc(Oc3ccc(NC(=O)c4cccn(-c5ccc(F)cc5)c4=O)cc3F)c2c2c1OCCO2 [Example 17, N-(3-fluoro-4-((5-methoxy-2,3-dihydro-[1,4]dioxino[2,3-f]quinolin-10-yl)oxy)phenyl)-1-(4-fluorophenyl)-2-oxo-1,2-dihydropyridine-3-carboxamide]
< 0.05 | ≤ 0.05 | < 0.05 | – | COc1cc2nccc(Oc3ccc(NC(=O)c4c(OC)ccn(-c5ccc(F)cc5)c4=O)cc3F)c2c2c1OCCO2 [Example 18, N-(3-fluoro-4-((5-methoxy-2,3-dihydro-[1,4]dioxino[2,3-f]quinolin-10-yl)oxy)phenyl)-1-(4-fluorophenyl)-4-methoxy-2-oxo-1,2-dihydropyridine-3-carboxamide]
< 0.05 | ≤ 0.05 | < 0.05 | – | CCOc1ccn(-c2ccc(F)cc2)c(=O)c1C(=O)Nc1ccc(Oc2ccnc3cc(OC)c4c(c23)OCCO4)c(F)c1 [Example 19, N-(3-fluoro-4-((5-methoxy-2,3-dihydro-[1,4]dioxino[2,3-f]quinolin-10-yl)oxy)phenyl)-1-(4-fluorophenyl)-4-ethoxy-2-oxo-1,2-dihydropyridine-3-carboxamide]
– | ≤ 0.05 | < 0.05 | < 0.05 | O=C(Nc1ccc(Oc2ccnc3cc(OCCCN4CCCCC4)c4c(c23)OCCO4)c(F)c1)c1cccn(-c2ccc(F)cc2)c1=O [Example 31, N-(3-fluoro-4-((5-(3-(piperidin-1-yl)propoxy)-2,3-dihydro-[1,4]dioxino[2,3-f]quinolin-10-yl)oxy)phenyl)-1-(4-fluorophenyl)-2-oxo-1,2-dihydropyridine-3-carboxamide]
< 0.05 | ≤ 0.05 | < 0.05 | – | COc1ccn(-c2ccc(F)cc2)c(=O)c1C(=O)Nc1ccc(Oc2ccnc3cc(OCCCN4CCCCC4)c4c(c23)OCCO4)c(F)c1 [Example 32, N-(3-fluoro-4-((5-(3-(piperidin-1-yl)propoxy)-2,3-dihydro-[1,4]dioxino[2,3-f]quinolin-10-yl)oxy)phenyl)-1-(4-fluorophenyl)-4-methoxy-2-oxo-1,2-dihydropyridine-3-carboxamide]
< 0.05 | ≤ 0.05 | < 0.05 | – | COCCOc1cc2nccc(Oc3ccc(NC(=O)c4cccn(-c5ccc(F)cc5)c4=O)cc3F)c2c2c1OCCO2 [Example 34, N-(3-fluoro-4-((5-(2-methoxyethoxy)-2,3-dihydro-[1,4]dioxino[2,3-f]quinolin-10-yl)oxy)phenyl)-1-(4-fluorophenyl)-2-oxo-1,2-dihydropyridine-3-carboxamide]
< 0.05 | ≤ 0.05 | < 0.05 | – | COCCOc1cc2nccc(Oc3ccc(NC(=O)c4c(OC)ccn(-c5ccc(F)cc5)c4=O)cc3F)c2c2c1OCCO2 [Example 35, N-(3-fluoro-4-((5-(2-methoxyethoxy)-2,3-dihydro-[1,4]dioxino[2,3-f]quinolin-10-yl)oxy)phenyl)-1-(4-fluorophenyl)-4-methoxy-2-oxo-1,2-dihydropyridine-3-carboxamide]
– | ≤ 0.05 | < 0.05 | – | O=C(Nc1ccc(Oc2ccnc3ccc4c(c23)OCCO4)c(F)c1)c1cccn(-c2ccc(F)cc2)c1=O [Example 169, N-(4-((2,3-dihydro-[1,4]dioxino[2,3-f]quinolin-10-yl)oxy)-3-fluorophenyl)-1-(4-fluorophenyl)-2-oxo-1,2-dihydropyridine-3-carboxamide]
